{"source": "patent US20230212229A1", "about": "(priority 2021, published 2023)", "key": {"SARS-CoV-2 [1]": {"test_system": "SARS-CoV-2", "format": "in vivo, ACE2 transgenic mice", "settings": "for SARS-CoV-2 copies/μL: lung tissue, 0.5 mg NIP-V injected 1 h before intranasal 1×10^5 TCID50, individual mice n = 8"}, "SARS-CoV-2 [2]": {"test_system": "SARS-CoV-2", "format": "in vivo, ACE2 transgenic mice", "settings": "lungs 24 h after infection"}, "SARS-CoV-2 S protein": {"test_system": "SARS-CoV-2 S protein", "format": "in vivo, ACE2 transgenic mice", "settings": "0.5 mg NIP-V; lungs 24 h after infection; versus PBS+SARS-CoV-2"}, "IFN-β": {"test_system": "IFN-β", "format": "in vivo, ACE2 transgenic mice", "settings": "for IFN-β in serum: 0.5 mg NIP-V, individual mice n = 8"}, "Ifnb1 mRNA": {"test_system": "Ifnb1 mRNA", "format": "in vivo, ACE2 transgenic mice", "settings": "for Ifnb1 mRNA: relative to unstimulated mice, individual mice n = 8"}, "Isg56 mRNA": {"test_system": "Isg56 mRNA", "format": "in vivo, ACE2 transgenic mice", "settings": "for Isg56 mRNA: relative to unstimulated mice, individual mice n = 8"}, "SARS-CoV-2 genomic RNA": {"test_system": "SARS-CoV-2 genomic RNA", "assay": "qPCR of the load of SARS-CoV-2 genomic RNA in spleen, liver and lung tissues", "format": "in vivo, ACE2 transgenic mice", "settings": "for SARS-CoV-2 genomic RNA: individual mice n = 8"}, "MAVS oligomerization": {"test_system": "MAVS oligomerization", "format": "cell-based", "settings": "HEK 293T, Myc-NP transfected; 50 μM or 100 μM NIP-V 1 h before SeV stimulation for 8 h"}, "SARS-CoV-2 N protein": {"test_system": "SARS-CoV-2 N protein", "settings": "0.5 mg NIP-V; lungs 24 h after infection; versus PBS+SARS-CoV-2"}, "[3]": {"settings": "NIP-V treatment versus PBS-treated group"}}, "note": "Values joined by “and” are separate entries in the source; they are usually repeats but may differ in a detail not shown here. Equal values may be shown once. Read-outs that look alike come from different tables or passages of the source."}
{"sequence": "IHKNLLIVQDKFPPRRRQRRKKRG [NIP-V]", "values": [{"measurement": "SARS-CoV-2 viral load in lung tissue (in words)", "setting": "SARS-CoV-2 [1]; NIP-V-treated groups (2 and 4) versus PBS-treated groups, 16 h and 24 h", "value": "greatly reduced"}, {"measurement": "SARS-CoV-2 copies/μL", "setting": "SARS-CoV-2 [1]; 16 h after infection", "value": "30 copies/μL and 76 copies/μL and 0 copies/μL (3×) and 2484 copies/μL and 131 copies/μL and 726 copies/μL"}, {"measurement": "SARS-CoV-2 copies/μL", "setting": "SARS-CoV-2 [1]; 24 h after infection", "value": "3 copies/μL and 0 copies/μL (7×)"}, {"measurement": "lung lesions caused by SARS-CoV-2 infection (HE staining)", "setting": "SARS-CoV-2 [2]; 0.5 mg NIP-V 1 h before infection, versus PBS+SARS-CoV-2", "value": "significantly reduce the lung lesions"}, {"measurement": "thickening of alveolar septa (HE staining)", "setting": "SARS-CoV-2 [2]; 0.5 mg NIP-V", "value": "not significant"}, {"measurement": "occurrence of hemagglutination and inflammatory cell infiltration (HE staining)", "setting": "SARS-CoV-2 [2]; 0.5 mg NIP-V, versus PBS+SARS-CoV-2 group", "value": "significantly lower than that in the PBS+SARS-CoV-2 group"}, {"measurement": "SARS-CoV-2 S protein signal in lung tissue (immunohistochemistry)", "setting": "SARS-CoV-2 S protein", "value": "much lower than that of the PBS+SARS-CoV-2 treated mice"}, {"measurement": "content of IFN-β in serum (in words)", "setting": "IFN-β; NIP-V-treated groups versus PBS-treated groups, 16 h and 24 h", "value": "significantly higher than that in the PBS-treated group"}, {"measurement": "IFN-β in serum", "setting": "IFN-β; 16 h after SARS-CoV-2 infection", "value": "52.44 pg/mL and 46.60 pg/mL and 50.21 pg/mL and 75.33 pg/mL and 37.97 pg/mL and 52.98 pg/mL and 68.93 pg/mL and 48.49 pg/mL"}, {"measurement": "IFN-β in serum", "setting": "IFN-β; 24 h after SARS-CoV-2 infection", "value": "38.29 pg/mL and 38.61 pg/mL and 34.78 pg/mL and 30.95 pg/mL and 44.88 pg/mL and 37.02 pg/mL and 35.42 pg/mL and 45.20 pg/mL"}, {"measurement": "Ifnb1 mRNA", "setting": "Ifnb1 mRNA; Liver, 16 h", "value": "52.55 Fold and 86.45 Fold and 85.91 Fold and 111.15 Fold and 85.02 Fold and 132.00 Fold and 68.88 Fold and 81.36 Fold"}, {"measurement": "Ifnb1 mRNA", "setting": "Ifnb1 mRNA; Liver, 24 h", "value": "22.59 Fold and 79.02 Fold and 29.53 Fold and 33.69 Fold and 42.93 Fold and 49.66 Fold and 31.43 Fold and 45.92 Fold"}, {"measurement": "Ifnb1 mRNA", "setting": "Ifnb1 mRNA; Lung, 16 h", "value": "186.37 Fold and 302.75 Fold and 202.16 Fold and 145.17 Fold and 113.93 Fold and 133.62 Fold and 259.88 Fold and 148.33 Fold"}, {"measurement": "Ifnb1 mRNA", "setting": "Ifnb1 mRNA; Lung, 24 h", "value": "82.49 Fold and 165.42 Fold and 112.99 Fold and 126.62 Fold and 84.22 Fold and 36.61 Fold and 22.54 Fold and 46.19 Fold"}, {"measurement": "expression of Ifnb1 mRNA in spleen, liver and lung tissues (in words)", "setting": "Ifnb1 mRNA; [3]", "value": "increase the expression"}, {"measurement": "Ifnb1 mRNA", "setting": "Ifnb1 mRNA; Spleen, 16 h", "value": "87.27 Fold and 42.74 Fold and 73.72 Fold and 58.30 Fold and 67.91 Fold and 98.19 Fold and 64.75 Fold and 70.43 Fold"}, {"measurement": "Ifnb1 mRNA", "setting": "Ifnb1 mRNA; Spleen, 24 h", "value": "45.66 Fold and 36.50 Fold and 51.66 Fold and 47.70 Fold and 40.76 Fold and 71.38 Fold and 47.81 Fold and 45.86 Fold"}, {"measurement": "Isg56 mRNA", "setting": "Isg56 mRNA; Liver, 16 h", "value": "30.49 Fold and 18.13 Fold and 27.16 Fold and 42.29 Fold and 27.58 Fold and 35.86 Fold and 25.80 Fold and 29.09 Fold"}, {"measurement": "Isg56 mRNA", "setting": "Isg56 mRNA; Liver, 24 h", "value": "14.51 Fold and 10.01 Fold and 7.41 Fold and 10.47 Fold and 12.89 Fold and 12.03 Fold and 9.46 Fold and 5.61 Fold"}, {"measurement": "Isg56 mRNA", "setting": "Isg56 mRNA; Lung, 16 h", "value": "92.65 Fold and 109.88 Fold and 67.64 Fold and 46.59 Fold and 99.03 Fold and 85.62 Fold and 91.13 Fold and 26.35 Fold"}, {"measurement": "Isg56 mRNA", "setting": "Isg56 mRNA; Lung, 24 h", "value": "232.32 Fold and 263.20 Fold and 152.15 Fold and 131.60 Fold and 144.01 Fold and 188.71 Fold and 205.07 Fold and 374.81 Fold"}, {"measurement": "expression of Isg56 mRNA in spleen, liver and lung tissues (in words)", "setting": "Isg56 mRNA; [3]", "value": "increase the expression"}, {"measurement": "Isg56 mRNA", "setting": "Isg56 mRNA; Spleen, 16 h", "value": "121.34 Fold and 87.49 Fold and 110.12 Fold and 85.19 Fold and 94.54 Fold and 59.17 Fold and 76.17 Fold and 82.88 Fold"}, {"measurement": "Isg56 mRNA", "setting": "Isg56 mRNA; Spleen, 24 h", "value": "73.25 Fold and 63.36 Fold and 55.41 Fold and 62.68 Fold and 45.16 Fold and 32.90 Fold and 56.97 Fold and 36.50 Fold"}, {"measurement": "SARS-CoV-2 genomic RNA", "setting": "SARS-CoV-2 genomic RNA; Liver, 16 h", "value": "2.09E+02 Fold and 1.42E+02 Fold and 8.55E+01 Fold and 1.08E+02 Fold and 1.69E+02 Fold and 6.80E+02 Fold and 8.67E+01 Fold and 2.38E+02 Fold"}, {"measurement": "SARS-CoV-2 genomic RNA", "setting": "SARS-CoV-2 genomic RNA; Liver, 24 h", "value": "6.41E+01 Fold and 4.17E+01 Fold and 4.33E+01 Fold and 1.70E+02 Fold and 5.83E+01 Fold and 5.13E+01 Fold and 3.93E+01 Fold and 2.38E+01 Fold"}, {"measurement": "SARS-CoV-2 genomic RNA", "setting": "SARS-CoV-2 genomic RNA; Lung, 16 h", "value": "5.93E+03 Fold and 4.43E+03 Fold and 2.73E+03 Fold and 1.61E+04 Fold and 1.86E+04 Fold and 1.48E+04 Fold and 8.10E+03 Fold and 3.62E+03 Fold"}, {"measurement": "SARS-CoV-2 genomic RNA", "setting": "SARS-CoV-2 genomic RNA; Lung, 24 h", "value": "4.74E+03 Fold and 3.19E+03 Fold and 3.72E+03 Fold and 1.23E+03 Fold and 1.56E+03 Fold and 1.26E+03 Fold and 1.49E+04 Fold and 0.00E+00 Fold"}, {"measurement": "SARS-CoV-2 genomic RNA", "setting": "SARS-CoV-2 genomic RNA; Spleen, 16 h", "value": "1.66E+03 Fold and 1.40E+03 Fold and 1.37E+03 Fold and 4.78E+02 Fold and 1.60E+03 Fold and 8.65E+02 Fold and 1.33E+03 Fold and 1.15E+03 Fold"}, {"measurement": "SARS-CoV-2 genomic RNA", "setting": "SARS-CoV-2 genomic RNA; Spleen, 24 h", "value": "4.18E+02 Fold and 3.11E+02 Fold and 2.38E+02 Fold and 1.85E+02 Fold and 4.43E+02 Fold and 1.35E+02 Fold and 2.56E+02 Fold and 7.20E+02 Fold"}, {"measurement": "proliferation of SARS-CoV-2 in tissues (qPCR, in words)", "setting": "SARS-CoV-2 genomic RNA; spleen, liver and lung, NIP-V treatment versus PBS-treated group", "value": "inhibit the proliferation of SARS-CoV-2"}, {"measurement": "MAVS oligomerization inhibited by SARS-CoV-2 N protein (SDD-PAGE)", "setting": "MAVS oligomerization", "value": "restore the MAVS oligomerization in a dose-dependent manner"}, {"measurement": "SARS-CoV-2 N protein signal in lung tissue (immunofluorescence)", "setting": "SARS-CoV-2 N protein", "value": "weaker N protein signals can be detected"}]}
